Where a name gives a salt, the structure may show the parent alone.
Assays:
NMDA receptor = target: T1, NMDA receptor (Rattus norvegicus, UniProt P35439+Q00960); assay: 3H-[R-(R*,S*)]-a-(4-Hydroxy-phenyl)-b-methyl-4-(phenyl-methyl)-1-piperidine propanol binding (displacement, rat brain membranes); settings: displacement of 5 nM 3H-radioligand, rat whole brain membranes minus cerebellum and medulla oblongata, 2 hours at 4° C.
T1 construct: Membranes were prepared by homogenization of the whole brain minus cerebellum and medulla oblongata; from tissue; host or cells: rat whole brain minus cerebellum and medulla oblongata, membranes
T1 sequence (Q00960 27-1482, other chains not shown): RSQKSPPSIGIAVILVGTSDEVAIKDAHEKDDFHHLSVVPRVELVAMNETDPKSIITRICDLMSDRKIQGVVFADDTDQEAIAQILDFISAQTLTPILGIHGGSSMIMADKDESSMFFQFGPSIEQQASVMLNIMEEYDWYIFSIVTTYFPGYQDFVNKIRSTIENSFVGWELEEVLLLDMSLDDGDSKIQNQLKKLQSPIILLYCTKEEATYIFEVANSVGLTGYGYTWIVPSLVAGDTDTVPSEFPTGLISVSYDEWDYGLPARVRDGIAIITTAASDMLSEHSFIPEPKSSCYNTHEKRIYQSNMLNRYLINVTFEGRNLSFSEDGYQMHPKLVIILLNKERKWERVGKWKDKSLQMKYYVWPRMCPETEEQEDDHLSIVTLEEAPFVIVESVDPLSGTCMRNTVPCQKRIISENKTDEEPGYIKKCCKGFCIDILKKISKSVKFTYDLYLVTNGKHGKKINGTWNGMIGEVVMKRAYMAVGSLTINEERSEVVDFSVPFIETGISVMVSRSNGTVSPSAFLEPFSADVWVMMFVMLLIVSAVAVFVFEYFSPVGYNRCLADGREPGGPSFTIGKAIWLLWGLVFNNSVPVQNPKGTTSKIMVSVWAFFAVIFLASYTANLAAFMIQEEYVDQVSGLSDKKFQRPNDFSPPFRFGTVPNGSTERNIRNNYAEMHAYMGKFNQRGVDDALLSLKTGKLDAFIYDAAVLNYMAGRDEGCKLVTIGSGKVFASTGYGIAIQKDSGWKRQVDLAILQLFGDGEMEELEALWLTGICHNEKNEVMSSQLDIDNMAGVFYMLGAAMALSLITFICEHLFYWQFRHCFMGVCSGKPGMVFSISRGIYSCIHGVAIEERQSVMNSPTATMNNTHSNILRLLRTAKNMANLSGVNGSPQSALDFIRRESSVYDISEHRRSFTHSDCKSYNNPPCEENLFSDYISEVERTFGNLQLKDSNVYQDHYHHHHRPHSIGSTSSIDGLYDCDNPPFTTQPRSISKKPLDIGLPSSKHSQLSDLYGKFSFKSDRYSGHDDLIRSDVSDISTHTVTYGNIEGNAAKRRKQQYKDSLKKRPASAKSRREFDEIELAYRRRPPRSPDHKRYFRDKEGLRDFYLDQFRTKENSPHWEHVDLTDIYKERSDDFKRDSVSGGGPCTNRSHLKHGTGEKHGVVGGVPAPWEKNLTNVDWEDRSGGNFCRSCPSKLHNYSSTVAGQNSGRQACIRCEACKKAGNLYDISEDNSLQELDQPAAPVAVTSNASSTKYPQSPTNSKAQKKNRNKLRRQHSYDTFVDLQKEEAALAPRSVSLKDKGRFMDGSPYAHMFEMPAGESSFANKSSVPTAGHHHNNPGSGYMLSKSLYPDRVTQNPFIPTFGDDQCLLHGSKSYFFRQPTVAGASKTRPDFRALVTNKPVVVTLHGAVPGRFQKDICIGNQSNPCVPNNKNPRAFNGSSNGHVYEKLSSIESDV
Description: ^3H-[R-(R*,S*)]-a-(4-Hydroxy-phenyl)-b-methyl-4-(phenyl-methyl)-1-piperidine propanol binding
Male Füllinsdorf albino rats weighing between 150-200 g were used. Membranes were prepared by homogenization of the whole brain minus cerebellum and medulla oblongata with a Polytron (10.000 rpm, 30 seconds), in 25 volume of a cold Tris-HCl 50 mM, EDTA 10 mM, pH 7.1 buffer. The homogenate was centrifuged at 48,000 g for 10 minutes at 4° C. The pellet was resuspended using the Polytron in the same volume of buffer and the homogenate was incubated at 37° C. for 10 minutes. After centrifugation the pellet was homogenized in the same buffer and frozen at −80° C. for at least 16 hours but not more than 10 days. For the binding assay the homogenate was thawed at 37° C., centrifuged and the pellet was washed three times as above in a Tris-HCl 5 mM, pH 7.5 cold buffer. The final pellet was resuspended in the same buffer and used at a final concentration of […] of protein/ml.
[R-(R*,S*)]-α-(4-Hydroxy-phenyl)-β-methyl-4-(phenyl-methyl)-1-piperidine propanol is a compound known to bind selectively to the NMDA receptor (J. Neurochem., Vol. 70., No. 5, 1998). ^3H-[R-(R*,S*)]-α-(4-Hydroxy-phenyl)-β-methyl-4-(phenyl-methyl)-1-piperidine propanol binding experiments were performed using a Tris-HCl 50 mM, pH 7.4 buffer. For displacement experiments 5 nM of 3H-[R-(R*,S*)]-a-(4-Hydroxy-phenyl)-b-methyl-4-(phenyl-methyl)-1-piperidine propanol were used and non specific binding was measured using 10 mM of tetrahydroisoquinoline and usually it accounts for 10% of the total. The incubation time was 2 hours at 4° C. and the assay was stopped by filtration on Whatmann GF/B glass fiber filters (Unifilter-96, Packard, Zürich, Switzerland). The filters were washed 5 times with cold buffer. The radioactivity on the filter was counted on a Packard Top-count microplate scintillation counter after addition of […] of microscint 40 (Canberra Packard S.A., Zürich, Switzerland).
The effects of compounds were measured using a minimum of 8 concentrations and repeated at least once. The pooled normalized values were analyzed using a non-linear regression calculation program which provide IC50 with their relative upper and lower 95% confidence limits.

| SMILES | melting point [°C] | IC50 (NMDA receptor) [nM] |
| --- | --- | --- |
| Cl.Clc1ccc2c(c1)CN(c1ccnc3ccccc13)C2 | 270 to 275 |  |
| COc1cccc2c(N3CCc4ccccc4C3)ccnc12.Cl | 240 |  |
| Cc1cc(N2CCc3ccccc3C2)c2ccccc2n1.Cl | 210 to 211 |  |
| Cl.c1ccc2c(c1)CN(c1ccnc3ccccc13)C2 | 264 to 267 |  |
| Cl.c1ccc2c(c1)CCN(c1ccnc3ccccc13)C2 | 200 |  |

Second part, the compound after the results:

| melting point [°C] | IC50 (NMDA receptor) [nM] | SMILES |
| --- | --- | --- |
| 74 to 80 | 290 | OC[C@H]1CCCN1c1cc(N2CCc3ccccc3C2)c2ccccc2n1 [Example 5, (R)-{1-[4-(3,4-Dihydro-1H-isoquinolin-2-yl)-quinolin-2-yl]-pyrrolidin-2-yl}-methanol] |
| 270 to 274 | 170 | Cl.O[C@@H]1CCN(c2cc(N3CCc4ccccc4C3)c3ccccc3n2)C1 [Example 4, (R)-1-[4-(3,4-Dihydro-1H-isoquinolin-2-yl)-quinolin-2-yl]-pyrrolidin-3-ol hydrochloride] |
|  | 320 | Clc1ccc2c(N3CCc4ccccc4C3)ccnc2c1 [Example 15, 7-Chloro-4-(3,4-dihydro-1H-isoquinolin-2-yl)-quinoline hydrochloride] |
|  | 650 | Fc1cccc2c(N3CCc4ccccc4C3)ccnc12 [Example 16, 4-(3,4-Dihydro-1H-isoquinolin-2-yl)-8-fluoro-quinoline hydrochloride] |
|  | 890 | Fc1ccc2nccc(N3CCc4ccccc4C3)c2c1 [Example 18, 4-(3,4-Dihydro-1H-isoquinolin-2-yl)-6-fluoro-quinoline hydrochloride] |
| 251 to 252 | 190 | Cc1ccc2c(N3CCc4ccccc4C3)ccnc2c1.Cl [Example 13, 4-(3,4-Dihydro-1H-isoquinolin-2-yl)-7-methyl-quinoline hydrochloride] |
|  | 58 | OCCNc1cc(N2CCc3ccccc3C2)c2ccccc2n1 [Example 2, 2-[4-(3,4-Dihydro-1H-isoquinolin-2-yl)-quinolin-2-ylamino]-ethanol hydrochloride] |

From patent US6339093B1, “Isoquinoline derivatives” (Hoffmann-la Roche Inc., priority 1999, dated 2002)
